In publication PMC10525257, “Hop Flower Supercritical Carbon Dioxide Extracts Coupled with Carriers with Solubilizing Properties—Antioxidant Activity and Neuroprotective Potential” (Antioxidants, 2023):
Converted amounts (≈) assume the structure as drawn.

Biological target: T1, tyrosinase from mushroom
T1 construct: gene PPO1
Experiment: dopachrome absorbance, […] nm, 96-well plate
Type: biochemical
Settings: L-DOPA substrate (2.0 mM stock), phosphate buffer pH 6.8, room temperature

- IC50: 6455 ± 249 µg/mL (≈ 34.3 mM)
SMILES: O=C(O)CCCCCCCC(=O)O [azelaic acid]
